Like-named read-outs stand apart in the source and are kept apart here.
How the values were obtained:
EGFR = EGFR (Homo sapiens, UniProt P00533); assay: ADP-Glo kinase assay, EGFR; type: biochemical; design: purchased BPS Bioscience (assay run externally by the vendor)
aurora A kinase (AURKA) = target: T1, aurora A kinase (AURKA) (Homo sapiens, UniProt O14965); assay: ADP-Glo kinase assay, Aurora A; type: biochemical
T1 construct: purchased BPS Bioscience (assay run externally by the vendor)
T1 sequence (O14965 1-403): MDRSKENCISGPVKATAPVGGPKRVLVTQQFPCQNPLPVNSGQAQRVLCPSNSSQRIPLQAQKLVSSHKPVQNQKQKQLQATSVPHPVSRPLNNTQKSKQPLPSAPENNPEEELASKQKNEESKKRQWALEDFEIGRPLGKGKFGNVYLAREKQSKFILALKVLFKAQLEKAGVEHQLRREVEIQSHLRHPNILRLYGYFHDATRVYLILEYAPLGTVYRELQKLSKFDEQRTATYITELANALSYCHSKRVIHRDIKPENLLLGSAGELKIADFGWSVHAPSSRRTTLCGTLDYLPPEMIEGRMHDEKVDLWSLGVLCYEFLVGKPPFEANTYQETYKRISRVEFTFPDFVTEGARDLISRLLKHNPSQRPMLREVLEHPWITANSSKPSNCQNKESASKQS

[1] = tested on: p-HH3 in FADU and SAS SCCHN cell lines; assay: Western blot of p-HH3 in FADU and SAS cells; type: cell-based; details: 10 nM
Protocol: Protein extracts (50 μg per lane) were electrophoretically separated on SDS-PAGE gels, transferred to membranes (Protran, Schleicher & Schuell, Dassel, Germany) and blotted with specific antibodies (actin, aurora A, aurora B: all from Sigma, Munich, Germany; S10-HH3: Millipore, Schwalbach, Germany; EGFR: Santa Cruz, Heidelberg, Germany; pEGFR: Invitrogen, Darmstadt, Germany; pAKT, pERK: both from New England Biolabs, Frankfurt, Germany).
Figure 4. Effects of compound 2 on EGFR and aurora kinases in growing SCCHN cell lines (A) Western blot analysis of EGFR (pEGFR, pERK, p-AKT) and aurora A (p-HH3) downstream target proteins following incubation with 100 μM compound 2 for the indicated time points in BHY and FADU SCCHN cell lines. (B) BHY and CAL cell lines treated for the indicated time points with 200 nM cetuximab. Western blot analysis of EGFR downstream targets. (long exposure and short exposure). […] Western blot analysis of p-HH3 at the indicated time points. Asterisk (*) represents unspecific band.

[2] = 10 µM ATP, triplicate, read-out: EGFR IC50 ± SD
[3] = 10 µM ATP/0.2 mg/ml Poly-Glu-Tyr, read-out: EGFR IC50 (dose-response curve, supplement)
[4] = 10 µM ATP, triplicate, read-out: AURKA IC50 ± SD
[5] = 10 µM ATP/0.2 mg/ml Kemptide, read-out: Aurora A IC50 (dose-response curve, supplement)

EGFR, sequence (P00533 25-1210): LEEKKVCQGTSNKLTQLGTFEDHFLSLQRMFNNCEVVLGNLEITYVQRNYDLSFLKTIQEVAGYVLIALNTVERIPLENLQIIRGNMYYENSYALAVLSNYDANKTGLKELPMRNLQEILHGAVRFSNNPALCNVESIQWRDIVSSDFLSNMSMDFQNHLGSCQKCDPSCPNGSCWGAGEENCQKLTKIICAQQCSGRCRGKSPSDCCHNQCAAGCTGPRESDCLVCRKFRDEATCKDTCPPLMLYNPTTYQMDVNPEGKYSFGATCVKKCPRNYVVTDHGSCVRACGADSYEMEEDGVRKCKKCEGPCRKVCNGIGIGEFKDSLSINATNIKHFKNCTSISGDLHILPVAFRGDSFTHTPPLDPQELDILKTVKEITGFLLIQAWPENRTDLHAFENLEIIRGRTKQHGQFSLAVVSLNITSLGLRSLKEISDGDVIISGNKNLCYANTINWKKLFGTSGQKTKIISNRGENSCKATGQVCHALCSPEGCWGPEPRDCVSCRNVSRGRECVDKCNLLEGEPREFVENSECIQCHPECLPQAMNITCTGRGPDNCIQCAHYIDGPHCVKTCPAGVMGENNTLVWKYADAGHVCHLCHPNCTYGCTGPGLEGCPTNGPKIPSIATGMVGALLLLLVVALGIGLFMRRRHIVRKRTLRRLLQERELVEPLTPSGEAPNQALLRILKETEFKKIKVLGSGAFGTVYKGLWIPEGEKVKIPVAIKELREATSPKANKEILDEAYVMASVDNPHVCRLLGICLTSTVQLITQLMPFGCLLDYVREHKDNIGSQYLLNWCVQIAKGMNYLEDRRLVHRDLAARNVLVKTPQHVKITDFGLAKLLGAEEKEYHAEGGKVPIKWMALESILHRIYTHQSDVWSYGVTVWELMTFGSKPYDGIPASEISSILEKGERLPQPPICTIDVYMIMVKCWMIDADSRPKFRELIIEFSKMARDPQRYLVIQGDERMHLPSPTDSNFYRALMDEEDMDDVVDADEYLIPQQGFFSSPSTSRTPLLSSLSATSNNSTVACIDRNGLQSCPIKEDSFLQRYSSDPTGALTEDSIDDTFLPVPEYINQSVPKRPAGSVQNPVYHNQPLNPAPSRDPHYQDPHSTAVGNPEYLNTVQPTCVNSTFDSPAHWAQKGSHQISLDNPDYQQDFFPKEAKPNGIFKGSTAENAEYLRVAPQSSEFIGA

c1ccc(Oc2ccc(Nc3ncnc4[nH]ccc34)cc2)cc1 [Compound 17, N^4-(4-phenoxyphenyl)-7H-pyrrolo[2,3-d]pyrimidin-4-amine]
IC50 (EGFR; [2]): 111 ± 15.1 nM
IC50 (EGFR; [3]): 110 nM
EGFR % Activity Set1 (EGFR; Log[nM] 0): 93%
EGFR % Activity Set2 (EGFR; Log[nM] 0): 101%
EGFR % Activity Set3 (EGFR; Log[nM] 0): 99%
EGFR % Activity Set1 (EGFR; Log[nM] 1.0): 90%
EGFR % Activity Set2 (EGFR; Log[nM] 1.0): 91%
EGFR % Activity Set3 (EGFR; Log[nM] 1.0): 97%
EGFR % Activity Set1 (EGFR; Log[nM] 1.5): 72%
EGFR % Activity Set2 (EGFR; Log[nM] 1.5): 77%
EGFR % Activity Set3 (EGFR; Log[nM] 1.5): 83%
EGFR % Activity Set1 (EGFR; Log[nM] 2.0): 49%
EGFR % Activity Set2 (EGFR; Log[nM] 2.0): 51%
EGFR % Activity Set3 (EGFR; Log[nM] 2.0): 55%
EGFR % Activity Set1 (EGFR; Log[nM] 2.5): 24%
EGFR % Activity Set2 (EGFR; Log[nM] 2.5): 23%
EGFR % Activity Set3 (EGFR; Log[nM] 2.5): 29%
EGFR % Activity Set1 (EGFR; Log[nM] 3.0): 11%
EGFR % Activity Set2 (EGFR; Log[nM] 3.0): 10%
EGFR % Activity Set3 (EGFR; Log[nM] 3.0): 12%
EGFR % Activity Set1 (EGFR; Log[nM] 3.5): 5%
EGFR % Activity Set2 (EGFR; Log[nM] 3.5): 5%
EGFR % Activity Set3 (EGFR; Log[nM] 3.5): 5%
EGFR % Activity Set1 (EGFR; Log[nM] 4.0): 4%
EGFR % Activity Set2 (EGFR; Log[nM] 4.0): 4%
EGFR % Activity Set3 (EGFR; Log[nM] 4.0): 5%
EGFR % Activity Set1 (EGFR; Log[nM] 4.5): 5%
EGFR % Activity Set2 (EGFR; Log[nM] 4.5): 5%
EGFR % Activity Set3 (EGFR; Log[nM] 4.5): 5%
EGFR % Activity Set1 (EGFR; Log[nM] 5.0): 4%
EGFR % Activity Set2 (EGFR; Log[nM] 5.0): 4%
EGFR % Activity Set3 (EGFR; Log[nM] 5.0): 4%
IC50 (aurora A kinase (AURKA); [4]): 13300 ± 3570 nM
IC50 (aurora A kinase (AURKA); [5]): 12900 nM
Aurora A % Activity Set1 (aurora A kinase (AURKA); Log[nM] 0): 100%
Aurora A % Activity Set2 (aurora A kinase (AURKA); Log[nM] 0): 94%
Aurora A % Activity Set3 (aurora A kinase (AURKA); Log[nM] 0): 93%
Aurora A % Activity Set1 (aurora A kinase (AURKA); Log[nM] 1.0): 97%
Aurora A % Activity Set2 (aurora A kinase (AURKA); Log[nM] 1.0): 97%
Aurora A % Activity Set3 (aurora A kinase (AURKA); Log[nM] 1.0): 97%
Aurora A % Activity Set1 (aurora A kinase (AURKA); Log[nM] 1.5): 103%
Aurora A % Activity Set2 (aurora A kinase (AURKA); Log[nM] 1.5): 99%
Aurora A % Activity Set3 (aurora A kinase (AURKA); Log[nM] 1.5): 106%
Aurora A % Activity Set1 (aurora A kinase (AURKA); Log[nM] 2.0): 97%
Aurora A % Activity Set2 (aurora A kinase (AURKA); Log[nM] 2.0): 100%
Aurora A % Activity Set3 (aurora A kinase (AURKA); Log[nM] 2.0): 98%
Aurora A % Activity Set1 (aurora A kinase (AURKA); Log[nM] 2.5): 102%
Aurora A % Activity Set2 (aurora A kinase (AURKA); Log[nM] 2.5): 96%
Aurora A % Activity Set3 (aurora A kinase (AURKA); Log[nM] 2.5): 95%
Aurora A % Activity Set1 (aurora A kinase (AURKA); Log[nM] 3.0): 77%
Aurora A % Activity Set2 (aurora A kinase (AURKA); Log[nM] 3.0): 81%
Aurora A % Activity Set3 (aurora A kinase (AURKA); Log[nM] 3.0): 79%
Aurora A % Activity Set1 (aurora A kinase (AURKA); Log[nM] 3.5): 65%
Aurora A % Activity Set2 (aurora A kinase (AURKA); Log[nM] 3.5): 63%
Aurora A % Activity Set3 (aurora A kinase (AURKA); Log[nM] 3.5): 63%
Aurora A % Activity Set1 (aurora A kinase (AURKA); Log[nM] 4.0): 46%
Aurora A % Activity Set2 (aurora A kinase (AURKA); Log[nM] 4.0): 42%
Aurora A % Activity Set3 (aurora A kinase (AURKA); Log[nM] 4.0): 44%
Aurora A % Activity Set1 (aurora A kinase (AURKA); Log[nM] 4.5): 41%
Aurora A % Activity Set2 (aurora A kinase (AURKA); Log[nM] 4.5): 39%
Aurora A % Activity Set3 (aurora A kinase (AURKA); Log[nM] 4.5): 39%
Aurora A % Activity Set1 (aurora A kinase (AURKA); Log[nM] 5.0): 34%
Aurora A % Activity Set2 (aurora A kinase (AURKA); Log[nM] 5.0): 34%
Aurora A % Activity Set3 (aurora A kinase (AURKA); Log[nM] 5.0): 32%

c1ccc(Cc2ccc(Nc3ncnc4[nH]ccc34)cc2)cc1 [Compound 18, N^4-(4-benzylphenyl)-7H-pyrrolo[2,3-d]pyrimidin-4-amine]
IC50 (EGFR; [2]): 63.3 ± 4.58 nM
IC50 (EGFR; [3]): 63.3 nM
EGFR % Activity Set1 (EGFR; Log[nM] 0): 96%
EGFR % Activity Set2 (EGFR; Log[nM] 0): 92%
EGFR % Activity Set3 (EGFR; Log[nM] 0): 95%
EGFR % Activity Set1 (EGFR; Log[nM] 1.0): 88%
EGFR % Activity Set2 (EGFR; Log[nM] 1.0): 83%
EGFR % Activity Set3 (EGFR; Log[nM] 1.0): 88%
EGFR % Activity Set1 (EGFR; Log[nM] 1.5): 66%
EGFR % Activity Set2 (EGFR; Log[nM] 1.5): 62%
EGFR % Activity Set3 (EGFR; Log[nM] 1.5): 65%
EGFR % Activity Set1 (EGFR; Log[nM] 2.0): 42%
EGFR % Activity Set2 (EGFR; Log[nM] 2.0): 38%
EGFR % Activity Set3 (EGFR; Log[nM] 2.0): 43%
EGFR % Activity Set1 (EGFR; Log[nM] 2.5): 16%
EGFR % Activity Set2 (EGFR; Log[nM] 2.5): 16%
EGFR % Activity Set3 (EGFR; Log[nM] 2.5): 16%
EGFR % Activity Set1 (EGFR; Log[nM] 3.0): 8%
EGFR % Activity Set2 (EGFR; Log[nM] 3.0): 8%
EGFR % Activity Set3 (EGFR; Log[nM] 3.0): 9%
EGFR % Activity Set1 (EGFR; Log[nM] 3.5): 3%
EGFR % Activity Set2 (EGFR; Log[nM] 3.5): 3%
EGFR % Activity Set3 (EGFR; Log[nM] 3.5): 3%
EGFR % Activity Set1 (EGFR; Log[nM] 4.0): 2%
EGFR % Activity Set2 (EGFR; Log[nM] 4.0): 2%
EGFR % Activity Set3 (EGFR; Log[nM] 4.0): 2%
EGFR % Activity Set1 (EGFR; Log[nM] 4.5): 2%
EGFR % Activity Set2 (EGFR; Log[nM] 4.5): 2%
EGFR % Activity Set3 (EGFR; Log[nM] 4.5): 2%
EGFR % Activity Set1 (EGFR; Log[nM] 5.0): 2%
EGFR % Activity Set2 (EGFR; Log[nM] 5.0): 3%
EGFR % Activity Set3 (EGFR; Log[nM] 5.0): 2%
Fold better than compound 17 against AURKA (aurora A kinase (AURKA)): approximately two-fold
IC50 (aurora A kinase (AURKA); [4]): 4950 ± 690 nM
IC50 (aurora A kinase (AURKA); [5]): 5000 nM
Aurora A % Activity Set1 (aurora A kinase (AURKA); Log[nM] 0): 110%
Aurora A % Activity Set2 (aurora A kinase (AURKA); Log[nM] 0): 93%
Aurora A % Activity Set3 (aurora A kinase (AURKA); Log[nM] 0): 104%
Aurora A % Activity Set1 (aurora A kinase (AURKA); Log[nM] 1.0): 103%
Aurora A % Activity Set2 (aurora A kinase (AURKA); Log[nM] 1.0): 93%
Aurora A % Activity Set3 (aurora A kinase (AURKA); Log[nM] 1.0): 101%
Aurora A % Activity Set1 (aurora A kinase (AURKA); Log[nM] 1.5): 105%
Aurora A % Activity Set2 (aurora A kinase (AURKA); Log[nM] 1.5): 96%
Aurora A % Activity Set3 (aurora A kinase (AURKA); Log[nM] 1.5): 105%
Aurora A % Activity Set1 (aurora A kinase (AURKA); Log[nM] 2.0): 103%
Aurora A % Activity Set2 (aurora A kinase (AURKA); Log[nM] 2.0): 93%
Aurora A % Activity Set3 (aurora A kinase (AURKA); Log[nM] 2.0): 100%
Aurora A % Activity Set1 (aurora A kinase (AURKA); Log[nM] 2.5): 90%
Aurora A % Activity Set2 (aurora A kinase (AURKA); Log[nM] 2.5): 86%
Aurora A % Activity Set3 (aurora A kinase (AURKA); Log[nM] 2.5): 93%
Aurora A % Activity Set1 (aurora A kinase (AURKA); Log[nM] 3.0): 77%
Aurora A % Activity Set2 (aurora A kinase (AURKA); Log[nM] 3.0): 73%
Aurora A % Activity Set3 (aurora A kinase (AURKA); Log[nM] 3.0): 85%
Aurora A % Activity Set1 (aurora A kinase (AURKA); Log[nM] 3.5): 51%
Aurora A % Activity Set2 (aurora A kinase (AURKA); Log[nM] 3.5): 45%
Aurora A % Activity Set3 (aurora A kinase (AURKA); Log[nM] 3.5): 47%
Aurora A % Activity Set1 (aurora A kinase (AURKA); Log[nM] 4.0): 32%
Aurora A % Activity Set2 (aurora A kinase (AURKA); Log[nM] 4.0): 30%
Aurora A % Activity Set3 (aurora A kinase (AURKA); Log[nM] 4.0): 31%
Aurora A % Activity Set1 (aurora A kinase (AURKA); Log[nM] 4.5): 29%
Aurora A % Activity Set2 (aurora A kinase (AURKA); Log[nM] 4.5): 26%
Aurora A % Activity Set3 (aurora A kinase (AURKA); Log[nM] 4.5): 26%
Aurora A % Activity Set1 (aurora A kinase (AURKA); Log[nM] 5.0): 30%
Aurora A % Activity Set2 (aurora A kinase (AURKA); Log[nM] 5.0): 26%
Aurora A % Activity Set3 (aurora A kinase (AURKA); Log[nM] 5.0): 26%

COc1cc(Nc2ncc3c(n2)-c2ccc(Cl)cc2C(c2c(F)cccc2OC)=NC3)ccc1C(=O)O [MLN8237]
Histone H3 phosphorylation (p-HH3) [1]: inhibition of histone H3 phosphorylation
